According to patent US20100028266A1, “Composition and methods for treating allergic response” (Alpha Synergy Development. Inc., priority 2008, published 2010):

Experiments:
[1] = test system: eyes of a patient with an ocular condition of moderate hyperemia; assay: FIGS. 5A-C: reversal of pre-induced rebound hyperemia; type: in vivo, human; conditions: brimonidine at […] given after VISINE Original
Description: FIG. 5A is a baseline visual appearance of two eyes of a patient with an ocular condition.

[2] = test system: eyes of a patient with an ocular condition (baseline redness 4/4); conditions: brimonidine at 0.01%, 0.02%, […] (left eye) compared with tetrahydrozoline 0.05%, oxymetazoline […], naphazoline […] (right eye)
Description: In an average clinical situation, baseline redness is at 1-1.5/4.

[3] = test system: patients with chronic red eyes; assay: Example 5: chronic red eyes, one eye each treatment, patient satisfaction assessment; type: in vivo, human
Method: The treatment was through drops twice a day for three to five weeks. At the end, patient satisfaction assessment was conducted.

With `Brc1c(N=C2NCCN2)ccc2nccnc12.O=C(O)C(O)C(O)C(=O)O` [brimonidine, 5-bromo-6-(2-imidazolidinylideneamino)quinoxaline L-tartrate] the “effect on VISINE Original induced rebound hyperemia, right eye” value [1] was “reversing the VISINE Original® induced rebound hyperemia”, the “scleral whitening brightening effects” value [2] was “significant scleral whitening brightening effects” and the “patients who preferred the treatment” value ([3]; brimonidine at […] in one eye, Naphcon-A in the other, twice a day for three to five weeks) was 42%. For the same molecule, the patient-reported redness ([3]; brimonidine at […], drops twice a day for three to five weeks) was “All patients reported reduced redness”.
